Test results: patent publication US20250275964A1, “METHODS OF INHIBITING LIVER-TYPE GLUTAMINASE, GLS2” (CORNELL UNIVERSITY, priority 2019, published 2025)
Several values for one entry are separate records, joined by “and”; a condition that tells them apart may be missing. Identical values can stand only once.

Legend:
[1] = test system: DU4475 cells; assay: 6-day cell proliferation assay, DU4475; type: cell-based, human; conditions: DU4475, proliferation over 6 days
Protocol: (§1) Human breast cancer cell lines MCF7, BT-474, T-47D, MDA-MB-453, MDA-MB-231, Hs 578T, HCC38, SK-BR-3, and DU4475 were purchased from the American Type Culture Collection (ATCC) and no additional cell authentication was performed. The TSE human breast cancer cell line was supplied by Dr. Steven Abcouwer (University of Michigan). All breast cancer cells were cultured at 37° C. under a 5% CO2 atmosphere in RPMI 1640 medium containing 2 mM glutamine (Gibco) and supplemented with 10% fetal bovine serum (FBS) (Gibco). The 293T cell line (ATCC) used for generating lentivirus particles was cultured as above but using DMEM, high glucose (Gibco).
(§2) Culture medium was added to 12-well plates (1 ml/well) and wells were seeded with cells at Day 0 as follows. MCF7, T-47D, BT-474, HCC38 cells: […] cells/well. MDA-MB-453 and MDA-MB-231 cells: 1×10^4 cells/well. TSE and Hs 578T cells: 0.3×10^4 cells/well. After 16 hours, culture medium was replaced with fresh medium supplemented with appropriate concentrations of inhibitors and was subsequently replaced every 48 hours. On Day 6 cells were trypsinized and suspended in an appropriate volume of culture medium, and the total number of cells per well was determined using a hemocytometer or a TC20 Automated Cell Counter (Bio-Rad).

[2] = test system: MCF7 cells; assay: 6-day cell proliferation assay, MCF7; type: cell-based, human; conditions: MCF7, proliferation over 6 days
Protocol: as §1, §2

[3] = biological target: T1, recombinant full-length human GLS2 (Homo sapiens, UniProt Q9UI32); assay: Real-time recombinant glutaminase activity assay, GLS2; type: biochemical
T1 construct: GLS2 (residues 38 to 602) in E. coli; inferred from pQE80 vector and Ni-NTA/imidazole purification; made in house; host or cells: E. coli BL21(DE3)
T1 sequence (Q9UI32 38-602): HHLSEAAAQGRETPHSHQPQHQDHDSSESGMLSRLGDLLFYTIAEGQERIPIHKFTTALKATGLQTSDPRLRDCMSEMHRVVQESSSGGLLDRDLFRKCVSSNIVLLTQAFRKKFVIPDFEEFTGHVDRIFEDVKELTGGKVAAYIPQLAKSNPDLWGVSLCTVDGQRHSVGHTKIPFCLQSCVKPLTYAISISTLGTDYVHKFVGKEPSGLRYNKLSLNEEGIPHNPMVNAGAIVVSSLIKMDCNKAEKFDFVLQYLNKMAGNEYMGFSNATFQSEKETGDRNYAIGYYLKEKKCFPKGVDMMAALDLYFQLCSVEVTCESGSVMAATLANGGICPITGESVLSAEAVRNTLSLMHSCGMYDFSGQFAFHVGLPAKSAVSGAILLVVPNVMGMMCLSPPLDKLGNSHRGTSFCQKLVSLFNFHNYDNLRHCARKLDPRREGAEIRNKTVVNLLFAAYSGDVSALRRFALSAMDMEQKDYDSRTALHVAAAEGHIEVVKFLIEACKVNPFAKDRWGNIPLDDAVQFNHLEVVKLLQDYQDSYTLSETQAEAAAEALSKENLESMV
Protocol: Real-time monitoring of glutaminase activity through NADH production was performed on a Cary Eclipse fluorescence spectrometer. The excitation and emission wavelengths were set at 340 nm and 460 nm, respectively. To a 1 ml cuvette, 900 μl of assay buffer was added, followed by 10 μl of GDH, 40 μl of 50 mM NAD and 20 μl of either DMSO or various dilutions of 968. Then, 100 μl of either 100 nM GAC or 500 nM GLS2 was added to this mixture and the fluorescence emission was monitored in real time. After 30 s, 200 μl of a mixture of glutamine and K2HPO4 was added such that the final concentrations of K2HPO4 and glutamine were 100 mM and 20 mM, respectively. The initial velocity of glutamine hydrolysis was obtained from the slopes of the linear portion of the kinetic curve.
Recombinant GAC and GLS2 were expressed in E. coli as described in Huang et al., “Characterization of the Interactions of Potent Allosteric Inhibitors with Glutaminase C, a Key Enzyme in Cancer Cell Glutamine Metabolism,” J. Biol. Chem. 293:3535-3545 (2018), which is hereby incorporated by reference in its entirety. Briefly, E. coli strain BL21(DE3) (Thermo Fisher Scientific) were transformed with vector pQE80-GAC-72-598 or with pQE80-GLS2-38-602 to express the processed forms of GAC and GLS2, respectively. For both constructs, expression was induced with 0.3 mM IPTG for 20 hours at 18° C., and cells were then harvested by centrifugation and lysed by sonication in binding buffer (500 mM NaCl, 50 mM Tris-HCl pH 8.5, 10 mM imidazole, 5 mM β-mercaptoethanol, 1 mM benzamidine chloride). The lysate was centrifuged, and the supernatant applied to a Ni-NTA column which was then washed with 100 column volumes of binding buffer followed by 10 volumes of wash buffer (500 mM NaCl, 50 mM Tris-HCl pH 8.5, 40 mM imidazole, 5 mM β-mercaptoethanol, 1 mM benzamidine chloride). Protein was eluted with 5 column volumes of elution buffer (500 mM NaCl, 300 mM imidazole-HCl pH 7.5, 5 mM β-mercaptoethanol, 1 mM benzamidine chloride). The eluate was centrifugally concentrated and then further purified by FPLC using a HiLoad 16/600 Superdex 200 column (GE Healthcare) with 150 mM NaCl, 5 mM Tris-HCl pH 7.5.

[4] = test system: T-47D cells; assay: 6-day cell proliferation assay, T-47D; type: cell-based, human; conditions: proliferation over 6 days
Protocol: as §1, §2

| SMILES | EC50 [1] | EC50 [2] | inhibition of recombinant GLS2 activity ([3]; different concentrations) | EC50 [4] | inhibition of recombinant GLS2 activity ([3]; at 50 μM, NADH fluorescence in real time) | selectivity for GLS2 over GLS ([3]; purified recombinant glutaminases) |
| --- | --- | --- | --- | --- | --- | --- |
| O=C(Cc1ccccc1)Nc1nnc(CCSCCc2nnc(NC(=O)Cc3ccccc3)s2)s1 [BPTES] | > 20 µM | ~20 µM | resistance | ~20 µM |  |  |
| CN(C)c1ccc(C2Nc3ccc4ccccc4c3C3=C2C(=O)CC(C)(C)C3)cc1Br (stereo not shown) [Compound 968] | 4 µM | 4 µM | inhibited | 4 µM | completely blocks activity | > 3 fold and ~3 fold |
